Source: patent US8283358B2, “N-sulfonamido polycyclic pyrazolyl compounds” (Elan Pharmaceuticals, Inc., priority 2008, dated 2012)

biological target: T1, gamma-secretase (partially purified extract of IMR-32 cell membranes; substrate MBP-C125 Swe fusion protein, cleavage at the Aβ40 site) (Homo sapiens, UniProt P49768); experiment: Gamma-secretase APP enzyme assay (Example A); assay type: biochemical; conditions: class symbols; assay described in Example A; read-out: γAPP IC50
T1 construct: a partially purified extract of IMR-32 cell membranes as the gamma-secretase enzyme preparation; endogenous in cells; host or cells: IMR-32 cell membranes, partially purified extract
Description: The gamma-secretase APP enzyme assay was designed to measure the specific proteolytic cleavage of an APP substrate (MBP-C125 Swe fusion protein) at the Aβ40 site. […] This assay involved two steps beginning with the enzymatic reaction generating a cleavage product that was captured with an immobilized antibody specific for the neo-epitope Aβ40 site. The captured cleavage product was then detected in a sandwich ELISA assay with a biotinylated reporter antibody that is specific to Aβ(17-28). Streptavidin-linked alkaline phosphatase was then added that would generate a fluorescent signal proportional to the amount of cleavage product.
This warmed solution of BigCHAPS (N,N-Bis(3-D-gluconamidopropyl)cholamide) detergent was used to dissolve Brain Extract Type-V (lipid containing a minimum of 40% phosphatidylethanolamine) from Sigma (St. Louis, Mo.) to a concentration of 8 mg/ml. This solution containing BigCHAPS and lipid at 8 mg/ml is then diluted to 0.53 mg/ml lipid with a pre-warmed solution of Hepes and sodium chloride.
Gamma-secretase was then added to a 96-well micro-titre plate and then incubated with various concentrations of inhibitor for 30 minutes at 37° C. MBPC125 substrate was then added to initiate the reaction that would run for two hours at 37° C. The reaction was quenched with the addition of SDS to a final concentration of 0.1% and then 100 μl of the reaction mixture was transferred to a capture ELISA plate and incubated overnight at 4° C. Detection of the cleavage product was performed using a standard sandwich ELISA assay and quantified using a six point standard curve.

IC50 | Structure (SMILES)
> 1000 nM | N#Cc1ccc2c(c1)C1Cc3n[nH]cc3C2N1S(=O)(=O)c1ccc(C(F)(F)F)nc1 (single isomer, unassigned) [compound 172]
< 100 nM | N#Cc1ccc2c(c1)C1Cc3n[nH]cc3C2N1S(=O)(=O)c1ccc(C(F)(F)F)nc1 (single isomer, unassigned) [compound 174]
500 to 999 nM | O=S(=O)(c1ccc(C(F)(F)F)nc1)N1C2Cc3[nH]ncc3C1c1cc(F)ccc12 (single isomer, unassigned) [compound 179]
< 100 nM | O=S(=O)(c1ccc(C(F)(F)F)nc1)N1C2Cc3[nH]ncc3C1c1cc(F)ccc12 (single isomer, unassigned) [compound 180]
500 to 999 nM | O=S(=O)(c1ccc(C(F)(F)F)nc1)N1C2Cc3n[nH]cc3C1c1cccc(F)c12 (single isomer, unassigned) [compound 184]
< 100 nM | O=S(=O)(c1ccc(C(F)(F)F)nc1)N1C2Cc3n[nH]cc3C1c1cccc(F)c12 (single isomer, unassigned) [compound 185]
500 to 999 nM | O=S(=O)(c1ccc(C(F)(F)F)nc1)N1C2Cc3[nH]ncc3C1c1ccc(Cl)cc12 (single isomer, unassigned) [compound 223]
< 100 nM | O=S(=O)(c1ccc(C(F)(F)F)nc1)N1C2Cc3[nH]ncc3C1c1ccc(Cl)cc12 (single isomer, unassigned) [compound 224]
500 to 999 nM | O=S(=O)(c1ccc(C(F)(F)F)nc1)N1C2Cc3[nH]ncc3C1c1c(Cl)cccc12 (single isomer, unassigned) [compound 232]
< 100 nM | O=S(=O)(c1ccc(C(F)(F)F)nc1)N1C2Cc3[nH]ncc3C1c1c(Cl)cccc12 (single isomer, unassigned) [compound 233]
> 1000 nM | O=S(=O)(c1ccc(C(F)(F)F)nc1)N1C2Cc3[nH]ncc3C1c1cc(C3CC3)ccc12 (single isomer, unassigned) [compound 246]
< 100 nM | O=S(=O)(c1ccc(C(F)(F)F)nc1)N1C2Cc3[nH]ncc3C1c1cc(C3CC3)ccc12 (single isomer, unassigned) [compound 247]
< 100 nM | O=S(=O)(c1ccc(C(F)(F)F)nc1)N1C2Cc3n[nH]cc3C1c1nc(Br)ccc12 (single isomer, unassigned) [compound 248]
> 1000 nM | O=S(=O)(c1ccc(C(F)(F)F)nc1)N1C2Cc3n[nH]cc3C1c1nc(Br)ccc12 (single isomer, unassigned) [compound 249]
< 100 nM | O=S(=O)(c1ccc(C(F)(F)F)cc1)N1C2C=C(C3CC3)C1c1c[nH]nc1C2 (stereo not shown) [compound 44]
< 100 nM | O=S(=O)(c1ccc(C(F)(F)F)nc1)N1C2Cc3ccccc3C1c1c[nH]nc1C2 (stereo not shown) [compound 88]
< 100 nM | O=S(=O)(c1ccc(C(F)(F)F)cc1)N1C2Cc3[nH]ncc3C1c1cc(F)c(F)cc12 (stereo not shown) [compound 95]
< 100 nM | O=S(=O)(c1ccc(C(F)(F)F)nc1)N1C2Cc3[nH]ncc3C1c1ccccc12 (stereo not shown) [compound 98]
< 100 nM | O=S(=O)(c1ccc(C(F)(F)F)nc1)N1C2Cc3n[nH]cc3C1c1c(F)ccc(F)c12 (stereo not shown) [compound 131]
< 100 nM | O=S(=O)(c1ccc(C(F)(F)F)nc1)N1C2Cc3n[nH]cc3C1c1cccc(C3CC3)c1C2 (stereo not shown) [compound 134]
< 100 nM | O=S(=O)(c1ccc(C(F)(F)F)nc1)N1C2Cc3c(C4CC4)cccc3C1Cc1n[nH]cc12 (stereo not shown) [compound 135]

Further lines, the compound ahead of its results:

Structure (SMILES) | IC50
O=C1c2[nH]ncc2C2c3cccc(F)c3C1N2S(=O)(=O)c1ccc(C(F)(F)F)nc1 (single isomer, unassigned) [compound 192] | < 100 nM
O=C1c2[nH]ncc2C2c3cccc(F)c3C1N2S(=O)(=O)c1ccc(C(F)(F)F)nc1 (single isomer, unassigned) [compound 193] | 500 to 999 nM
O=S(=O)(c1ccc(Cl)cc1)N1C2Cc3[nH]ncc3C1c1c(F)cccc12 (single isomer, unassigned) [compound 230] | > 1000 nM
O=S(=O)(c1ccc(Cl)cc1)N1C2Cc3[nH]ncc3C1c1c(F)cccc12 (single isomer, unassigned) [compound 231] | < 100 nM
O=S(=O)(c1ccc(C(F)(F)F)nc1)N1C2Cc3[nH]ncc3C1c1cc(-c3ccc(F)cc3)ccc12 (single isomer, unassigned) [compound 244] | > 1000 nM
O=S(=O)(c1ccc(C(F)(F)F)nc1)N1C2Cc3[nH]ncc3C1c1cc(-c3ccc(F)cc3)ccc12 (single isomer, unassigned) [compound 245] | 100 to 499 nM
O=S(=O)(c1ccc(C(F)(F)F)cc1)N1C2c3cn[nH]c3C(F)C1c1cccc(F)c12 (single isomer, unassigned) [compound 262] | > 1000 nM
O=S(=O)(c1ccc(C(F)(F)F)cc1)N1C2c3cn[nH]c3C(F)C1c1cccc(F)c12 (single isomer, unassigned) [compound 263] | < 100 nM
O=S(=O)(c1ccc(C(F)(F)F)cc1)N1C2Cc3n[nH]cc3C1C(C1CC1)C2 (stereo not shown) [compound 45] | < 100 nM
O=S(=O)(c1ccc(C(F)(F)F)cc1)N1C2Cc3[nH]ncc3C1C=C2c1ccc(F)cc1 (stereo not shown) [compound 60] | 100 to 499 nM
O=S(=O)(c1ccc(C(F)(F)F)cc1)N1C2Cc3[nH]ncc3C1C(c1ccc(F)cc1)C2 (stereo not shown) [compound 61] | < 100 nM
O=C1c2n[nH]cc2C2c3cc(F)c(F)cc3C1N2S(=O)(=O)c1ccc(C(F)(F)F)cc1 (stereo not shown) [compound 69] | < 100 nM
O=C1c2[nH]ncc2C2c3ccccc3C1N2S(=O)(=O)c1ccc(C(F)(F)F)cc1 (stereo not shown) [compound 71] | < 100 nM
O=S(=O)(c1ccc(C(F)(F)F)cc1)N1C2Cc3[nH]ncc3C1c1ccccc12 (stereo not shown) [compound 72] | > 1000 nM
O=S(=O)(c1ccc(C(F)(F)F)cc1)N1C2c3cc(F)c(F)cc3C1C(F)(F)c1n[nH]cc12 (stereo not shown) [compound 77] | < 100 nM
O=S(=O)(c1ccc(C(F)(F)F)cc1)N1C2Cc3[nH]ncc3C1c1cccnc12 (stereo not shown) [compound 100] | < 100 nM

Structure (SMILES) | IC50
O=C1c2n[nH]cc2C2c3c(F)cccc3C1N2S(=O)(=O)c1ccc(C(F)(F)F)cc1 (stereo not shown) [compound 103] | < 100 nM
O=C1c2n[nH]cc2C2c3cccc(F)c3C1N2S(=O)(=O)c1ccc(C(F)(F)F)cc1 (stereo not shown) [compound 104] | < 100 nM
O=S(=O)(c1ccc(C(F)(F)F)cc1)N1C2Cc3n[nH]cc3C1CC(c1ccc(Br)cc1)C2 (stereo not shown) [compound 106] | < 100 nM
O=S(=O)(c1ccc(Cl)cc1)N1C2Cc3[nH]ncc3C1CC(c1ccncn1)C2 (stereo not shown) [compound 107] | < 100 nM
O=S(=O)(c1ccc(C(F)(F)F)nc1)N1C2Cc3[nH]ncc3C1CC(c1ccc3c(c1)OCO3)C2 (stereo not shown) [compound 108] | < 100 nM
O=S(=O)(c1ccc(C(F)(F)F)cc1)N1C2Cc3[nH]ncc3C1CC(c1ccc(-c3cscn3)cc1)C2 (stereo not shown) [compound 116] | < 100 nM
NC1CCCCC1Nc1ccc(C2CC3Cc4n[nH]cc4C(C2)N3S(=O)(=O)c2ccc(C(F)(F)F)cc2)cc1 (stereo not shown) [compound 117] | > 1000 nM
O=S(=O)(c1ccc(C(F)(F)F)cc1)N1C2Cc3[nH]ncc3C1c1cnccc12 (stereo not shown) [compound 120] | > 1000 nM
O=S(=O)(c1ccc(C(F)(F)F)cc1)N1C2c3c[nH]nc3C(F)(F)C1c1c(F)cccc12 (stereo not shown) [compound 121] | < 100 nM
O=S(=O)(c1ccc(C(F)(F)F)cc1)N1C2c3c[nH]nc3C(F)(F)C1c1cccc(F)c12 (stereo not shown) [compound 123] | < 100 nM
O=S(=O)(c1ccc(C(F)(F)F)cc1)N1C2Cc3[nH]ncc3C1CC(c1ccc(-n3cccn3)cc1)C2 (stereo not shown) [compound 124] | < 100 nM
O=S(=O)(c1ccc(C(F)(F)F)cc1)N1C2Cc3n[nH]cc3C1CC(c1cccc(Br)c1)C2 (stereo not shown) [compound 125] | < 100 nM
O=S(=O)(c1ccc(C(F)(F)F)cc1)N1C2c3c[nH]nc3C(F)(F)C1c1cccc(F)c12 (stereo not shown) [compound 127] | < 100 nM
O=S(=O)(c1ccc(C(F)(F)F)cc1)N1C2c3c[nH]nc3C(F)(F)C1c1cccc(F)c12 (stereo not shown) [compound 128] | < 100 nM
O=S(=O)(c1ccc(C(F)(F)F)cc1)N1C2Cc3[nH]ncc3C1CC(c1cccc(-n3ccnc3)c1)C2 (stereo not shown) [compound 132] | < 100 nM
O=S(=O)(c1ccc(C(F)(F)F)cc1)N1C2Cc3[nH]ncc3C1CC(c1cccc(-n3cccn3)c1)C2 (stereo not shown) [compound 133] | < 100 nM

same assay, conditions: γAPP IC50 (nM), class symbols; assay described in Example A

Structure (SMILES) | IC50
O=S(=O)(c1ccc(C(F)(F)F)nc1)N1C2Cc3[nH]ncc3C1c1ncc(F)cc12 (single isomer, unassigned) [compound 259] | > 1000 nM
O=S(=O)(c1ccc(C(F)(F)F)nc1)N1C2Cc3[nH]ncc3C1c1ncc(F)cc12 (single isomer, unassigned) [compound 260] | < 100 nM
O=S(=O)(c1ccc(C(F)(F)F)cc1)N1C2Cc3n[nH]cc3C1c1c(F)cccc12 (stereo not shown) [compound 96] | < 100 nM
O=S(=O)(c1ccc(C(F)(F)F)nc1)N1C2Cc3n[nH]cc3C1c1c(F)cccc12 (stereo not shown) [compound 130] | < 100 nM

same assay, conditions: γAPP IC50 (nM), numeric bounds given instead of class symbols; assay described in Example A

Structure (SMILES) | IC50
O=S(=O)(c1ccc(C(F)(F)F)nc1)N1C2Cc3n[nH]cc3C1c1c(F)cccc12 (stereo not shown) [compound 129] | > 10 nM
